Source: PubChem BioAssay AID248 (DTP/NCI, 2004)
Several values for one entry are separate records, joined by “and”; a condition that tells them apart may be missing. Equal entries are not always repeated. Toxic doses and inconclusive results are not listed. Rule as the data show it: active = T/C of 150% or more; inactive = T/C below 125%.

Test system: L1210 leukemia ip in BDF1 mice, survival T/C
Test: NCI In Vivo Anticancer Drug Screen. Data for tumor model L1210 Leukemia (intraperitoneal) in B6D2F1 (BDF1) mice
Settings: endpoint: mean survival time, higher = longer survival
Outline: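 In this screen, tumor-bearing mice given compound are compared to those given vehicle, and their survival values are reported as a treated-to-control quotient.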

[1] = dose: 100.0 mg/kg/injection, schedule: Q01DX009 (ip), vehicle: saline with Tween-80
[2] = dose: 100.0 mg/kg/injection, schedule: Q04DX003 (ip), vehicle: saline with Tween-80
[3] = dose: 200.0 mg/kg/injection, schedule: Q04DX003 (ip), vehicle: saline with Tween-80
[4] = dose: 400.0 mg/kg/injection, schedule: Q04DX003 (ip), vehicle: saline with Tween-80
[5] = dose: 200.0 mg/kg/injection, schedule: Q01DX009 (ip), vehicle: saline with Tween-80
[6] = dose: 400.0 mg/kg/injection, schedule: Q01DX009 (ip), vehicle: saline with Tween-80
[7] = dose: 100.0 mg/kg/injection, schedule: Q01DX009 (ip), vehicle: saline
[8] = dose: 100.0 mg/kg/injection, schedule: Q04DX003 (ip), vehicle: saline
[9] = dose: 200.0 mg/kg/injection, schedule: Q01DX009 (ip), vehicle: saline
[10] = dose: 200.0 mg/kg/injection, schedule: Q04DX003 (ip), vehicle: saline
[11] = dose: 400.0 mg/kg/injection, schedule: Q04DX003 (ip), vehicle: saline

Measured: T/C

O=c1n(C2OC(CO)C(O)C2O)ccc2nccn12 (centres undefined)
inactive: dose: 2.5 mg/kg/injection, schedule: Q01DX009 (ip), vehicle: saline 98 % of control | dose: 3.13 mg/kg/injection, schedule: Q03HX024 (ip), vehicle: saline 98 % of control | dose: 5.0 mg/kg/injection, schedule: Q01DX009 (ip), vehicle: saline 95 % of control | dose: 6.25 mg/kg/injection, schedule: Q03HX024 (ip), vehicle: saline 96 % of control | dose: 10.0 mg/kg/injection, schedule: Q01DX009 (ip), vehicle: saline 98 % of control | dose: 12.5 mg/kg/injection, schedule: Q03HX024 (ip), vehicle: saline 100 % of control | dose: 20.0 mg/kg/injection, schedule: Q01DX009 (ip), vehicle: saline 106 % of control | dose: 25.0 mg/kg/injection, schedule: Q03HX024 (ip), vehicle: saline 100 % of control | dose: 40.0 mg/kg/injection, schedule: Q01DX009 (ip), vehicle: saline 101 % of control | dose: 50.0 mg/kg/injection, schedule: Q01DX005 (ip), vehicle: saline 95 % of control | dose: 50.0 mg/kg/injection, schedule: Q03HX024 (ip), vehicle: saline 122 % of control | dose: 100.0 mg/kg/injection, schedule: Q01DX005 (ip), vehicle: saline 103 % of control | dose: 200.0 mg/kg/injection, schedule: Q01DX005 (ip), vehicle: saline 92 % of control | dose: 400.0 mg/kg/injection, schedule: Q01DX005 (ip), vehicle: saline 94 % of control

COc1ccc(C)cc1NC(=O)Sc1ccc(Cl)cc1
inactive: dose: 50.0 mg/kg/injection, schedule: Q01DX009 (ip), vehicle: saline with Tween-80 117 % of control | [1] 95 % of control

NC(N)=N/N=C/c1cccc(O)c1
inactive: dose: 63.0 mg/kg/injection, schedule: Q01DX Z (ip), vehicle: saline 112 % of control | dose: 125.0 mg/kg/injection, schedule: Q01DX Z (ip), vehicle: saline 102 % of control

COc1ccc(C(O)c2nnc(-c3ccccc3)nn2)cc1 (centres undefined)
inactive: dose: 100.0 mg/kg/injection, schedule: Q01DX001 (ip), vehicle: gum acacia 90 % of control | dose: 200.0 mg/kg/injection, schedule: Q01DX001 (ip), vehicle: gum acacia 120 % of control | dose: 400.0 mg/kg/injection, schedule: Q01DX001 (ip), vehicle: gum acacia 107 % of control

O=C(NC(Cc1ccccc1)C(=O)CBr)OCc1ccccc1 (centres undefined)
inactive: dose: 100.0 mg/kg/injection, schedule: Q01DX001 (ip), vehicle: saline with Tween-80 103 % of control

CC(CCC1CCCCC1)c1ccccc1 (centres undefined) (tested in a mixture with another compound)
inactive: [2] 93 % of control | [3] 96 % of control | [4] 93 % of control

CC(C)(C)SCCO
inactive: dose: 100.0 mg/kg/injection, schedule: Q04DX002 (ip), vehicle: saline 105 % of control | dose: 200.0 mg/kg/injection, schedule: Q04DX002 (ip), vehicle: saline 99 % of control | dose: 400.0 mg/kg/injection, schedule: Q04DX002 (ip), vehicle: saline 96 % of control

COC(=O)c1noc2cc([N+](=O)[O-])ccc12
inactive: [1] 96 % of control | [5] 92 % of control | [6] 90 % of control

CC1=CC(C)C(=O)N(CC(C)N2CCCC2)C(C)=C1 (centres undefined)
inactive: dose: 75.0 mg/kg/injection, schedule: Q01DX001 (ip), vehicle: carboxymethylcellulose (CMC) 102 % of control

[N-]=C=C(C(=O)c1ccccc1)[n+]1cc(Br)cc2ccccc21
inactive: dose: 100.0 mg/kg/injection, schedule: Q04DX002 (ip), vehicle: saline with Tween-80 94 % of control | dose: 200.0 mg/kg/injection, schedule: Q04DX002 (ip), vehicle: saline with Tween-80 94 % of control | dose: 400.0 mg/kg/injection, schedule: Q04DX002 (ip), vehicle: saline with Tween-80 94 % of control

CC1CCc2c(c3c(=O)[nH]c(=O)[nH]c3oc2=O)C1 (centres undefined)
inactive: dose: 50.0 mg/kg/injection, schedule: Q01DX009 (ip), vehicle: Klucel (hydroxypropylcellulose) (HPC) 105 % of control | dose: 100.0 mg/kg/injection, schedule: Q01DX009 (ip), vehicle: Klucel (hydroxypropylcellulose) (HPC) 93 % of control | dose: 200.0 mg/kg/injection, schedule: Q01DX009 (ip), vehicle: Klucel (hydroxypropylcellulose) (HPC) 89 % of control

O=C(Nc1ccc([N+](=O)[O-])cc1Cl)N(CC(O)c1ccccc1)C1CCCCC1 (centres undefined)
inactive: [7] 90 % of control | [8] 108 % of control | [9] 95 % of control | [10] 102 % of control | dose: 400.0 mg/kg/injection, schedule: Q01DX009 (ip), vehicle: saline 96 % of control | [11] 100 % of control

O=C(OC1OC(COCc2ccccc2)C(OCc2ccccc2)C1OCc1ccccc1)c1ccccc1 (centres undefined)
inactive: dose: 100.0 mg/kg/injection, schedule: Q01DX001 (ip), vehicle: Klucel (hydroxypropylcellulose) (HPC) 92 % of control and 98 % of control | dose: 200.0 mg/kg/injection, schedule: Q01DX001 (ip), vehicle: Klucel (hydroxypropylcellulose) (HPC) 100 % of control and 98 % of control | dose: 400.0 mg/kg/injection, schedule: Q01DX001 (ip), vehicle: Klucel (hydroxypropylcellulose) (HPC) 94 % of control and 113 % of control

CC1(C)N=C(N)N=C(N)N1NC(=O)c1ccc(F)cc1
inactive: [7] 102 % of control | [9] 96 % of control

CN(C)c1ccc2c(c1)Cc1cc(NC(=O)/C=C/C(=O)O)ccc1-2
inactive: [8] 112 % of control | [10] 93 % of control | [11] 91 % of control

O=[N+]([O-])c1cc(Br)cc(Br)c1
inactive: [1] 97 % of control | [2] 91 % of control | [5] 99 % of control | [3] 94 % of control | [6] 93 % of control | [4] 93 % of control

Cc1ccc(S(=O)(=O)OC2CN(S(C)(=O)=O)CC(OS(=O)(=O)c3ccc(C)cc3)CN(S(C)(=O)=O)C2)cc1 (centres undefined)
inactive: dose: 25.0 mg/kg/injection, schedule: Q04DX002 (ip), vehicle: Klucel (hydroxypropylcellulose) (HPC) 89 % of control | dose: 50.0 mg/kg/injection, schedule: Q04DX002 (ip), vehicle: Klucel (hydroxypropylcellulose) (HPC) 103 % of control | dose: 100.0 mg/kg/injection, schedule: Q04DX002 (ip), vehicle: Klucel (hydroxypropylcellulose) (HPC) 92 % of control

Cc1csc2nc(-c3ccccc3)nc(Cl)c12
inactive: dose: 100.0 mg/kg/injection, schedule: Q04DX003 (ip), vehicle: saline sonified 97 % of control | dose: 200.0 mg/kg/injection, schedule: Q04DX003 (ip), vehicle: saline sonified 93 % of control | dose: 400.0 mg/kg/injection, schedule: Q04DX003 (ip), vehicle: saline sonified 95 % of control

O=[N+]([O-])c1ccc(Cn2cnc3c(Cl)ncnc32)cc1
inactive: dose: 100.0 mg/kg/injection, schedule: Q01DX001 (ip), vehicle: other 90 % of control

c1ccc(C2=C([P+](c3ccccc3)(c3ccccc3)c3ccccc3)CCO2)cc1
inactive: dose: 3.0 mg/kg/injection, schedule: Q04DX003 (ip), vehicle: saline 102 % of control | dose: 3.12 mg/kg/injection, schedule: Q01DX009 (ip), vehicle: saline 117 % of control | dose: 6.0 mg/kg/injection, schedule: Q01DX001 (ip), vehicle: saline 108 % of control | dose: 6.0 mg/kg/injection, schedule: Q04DX003 (ip), vehicle: saline 117 % of control | dose: 6.25 mg/kg/injection, schedule: Q01DX009 (ip), vehicle: saline 109 % of control | dose: 12.0 mg/kg/injection, schedule: Q01DX001 (ip), vehicle: saline 108 % of control | dose: 12.0 mg/kg/injection, schedule: Q04DX003 (ip), vehicle: saline 101 % of control and 107 % of control | dose: 12.5 mg/kg/injection, schedule: Q01DX009 (ip), vehicle: saline 92 % of control | dose: 25.0 mg/kg/injection, schedule: Q01DX001 (ip), vehicle: saline 102 % of control
